Measured values: patent US10294202B2, “Pyrrolidinones as herbicides” (FMC Corporation, priority 2013, dated 2019)
Where two headings read alike, the source gives them in different places.

Tests used:
velvetleaf = assay: Test A pre-/postemergence herbicide test; type: in vivo, Abutilon theophrasti; conditions: for Velvetleaf plant response rating: Preemergence, visual rating on 0 to 100 scale (0 no effect, 100 complete control)
Method in brief: (§1)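 Visual injury ratings, 0 = no effect, 100 = complete control, taken ~10 days after treatment against untreated greenhouse controls. Preemergence: directed soil spray onto seeded loam/sand pots. Postemergence: spray onto plants at one- to two-leaf stage, 2–10 cm tall.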

rice = assay: Test C flooded paddy test; type: in vivo, Oryza sativa; conditions: Flood
Method in brief: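 Visual injury scored against controls after 13 to 15 days in the greenhouse, using 0 (no effect) to 100 (complete control). Test compounds went straight into paddy water held 3 cm above the soil surface on 2-leaf-stage plants, with that flood depth maintained for the whole test.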

morningglory = assay: Test A pre-/postemergence herbicide test; type: in vivo, Ipomoea spp.; conditions: for Morningglory plant response rating: Preemergence, visual rating on 0 to 100 scale (0 no effect, 100 complete control)
Method in brief: as §1

crabgrass, large = assay: Test A pre-/postemergence herbicide test; type: in vivo, Digitaria sanguinalis; conditions: for Crabgrass, Large plant response rating: Preemergence, visual rating on 0 to 100 scale (0 no effect, 100 complete control)
Method in brief: as §1

ragweed = assay: Test A pre-/postemergence herbicide test; type: in vivo, Ambrosia elatior
Method in brief: as §1

blackgrass = assay: Test A postemergence herbicide test; type: in vivo, Alopecurus myosuroides
Method in brief: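 Plants at the one- to two-leaf stage, 2–10 cm tall, grown in loam/sand pots, received postemergence sprays of the test chemicals. After about 10 days in the greenhouse, injury was scored visually against untreated controls on a 0–100 scale (0 none, 100 complete control).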

[1] = Postemergence, 125 g ai/ha, 0 to 100 scale, 0 no effect, 100 complete control
[2] = Postemergence, 500 g ai/ha, 0 to 100 scale (0 no effect, 100 complete control)
[3] = preemergence, 500 g ai/ha, 0 to 100 scale
[4] = Postemergence, 1000 g ai/ha, 0 to 100 scale (0 no effect, 100 complete control)
[5] = preemergence, 1000 g ai/ha, 0 to 100 scale
[6] = 500 g ai/ha, 0 to 100 scale (0 no effect, 100 complete control)
[7] = Postemergence, 125 g ai/ha, visual rating on 0 to 100 scale (0 no effect, 100 complete control), approx. 10 days
[8] = Preemergence, 125 g ai/ha, 0 to 100 scale where 0 is no effect and 100 is complete control
[9] = preemergence, 500 g ai/ha, 0 to 100 scale, 0 is no effect and 100 is complete control
[10] = 125 g ai/ha, 0 to 100 scale, 0 is no effect, 100 is complete control
[11] = Preemergence, 500 g ai/ha, visual rating on 0 to 100 scale (0 no effect, 100 complete control)
[12] = 125 g ai/ha, visual rating on 0 to 100 scale (0 no effect, 100 complete control), approx. 10 days

SMILES	Plant response rating, Velvetleaf (velvetleaf; [1])	Plant response rating, Velvetleaf (velvetleaf; [2])	Velvetleaf plant response rating (velvetleaf; 125 g ai/ha)	Plant response rating, Velvetleaf (velvetleaf; [3])	Plant response rating, Morningglory (morningglory; [1])	Plant response rating, Morningglory (morningglory; [2])	Morningglory plant response rating (morningglory; 125 g ai/ha)	Plant response rating, Morningglory (morningglory; [3])	Plant response rating, Crabgrass, Large (crabgrass, large; [1])	Plant response rating, Crabgrass, Large (crabgrass, large; [2])	Crabgrass, Large plant response rating (crabgrass, large; 125 g ai/ha)	Plant response rating, Crabgrass, Large (crabgrass, large; [3])	Plant response rating, Ragweed (ragweed; [2])	Plant response rating, Blackgrass (blackgrass; [6])	Plant response rating, Ragweed (ragweed; [7])	Plant response rating, Ragweed (ragweed; [8])	Ragweed plant response rating (ragweed; [11])	Plant response rating, Blackgrass (blackgrass; [12])	also measured
O=C1NCC(c2ccc(Cl)c(Cl)c2)C1C(=O)Nc1ccccc1F (racemic) [Compound 14]	0	90	0	0	0	0	0	0	80	90	90	90	–	–	–	–	–	–	Plant response rating, Rice (rice; 62 g ai/ha, scale of 0 to 100 where 0 is no effect and 100 is complete control, 13 to 15 days): 0; Plant response rating, Rice (rice; 250 g ai/ha, scale 0 to 100): 0
O=C1NCC(c2ccc(F)c(F)c2)C1C(=O)Nc1cccc(F)c1F (racemic) [Compound 101]	50	70	30	40	30	60	0	50	80	80	90	100	–	–	–	–	–	–	Plant response rating, Rice (rice; 125 g ai/ha, scale of 0 to 100 where 0 is no effect and 100 is complete control, 13 to 15 days): 0; Plant response rating, Rice (rice; 250 g ai/ha, scale 0 to 100): 0; Plant response rating, Rice (rice; 500 g ai/ha, scale 0 to 100): 0; Plant response rating, Rice (rice; 1000 g ai/ha, scale 0 to 100): 10
Cc1c(F)cccc1NC(=O)C1C(=O)NCC1c1ccc(F)c(F)c1 (racemic) [Compound 106]	–	–	–	–	–	–	–	–	–	–	–	–	–	–	–	–	–	–	Plant response rating, Velvetleaf (velvetleaf; [4]): 40; Plant response rating, Velvetleaf (velvetleaf; [5]): 0; Plant response rating, Morningglory (morningglory; [4]): 20; Plant response rating, Morningglory (morningglory; [5]): 0; Plant response rating, Crabgrass, Large (crabgrass, large; [4]): 90; Plant response rating, Crabgrass, Large (crabgrass, large; [5]): 90
Cc1ccccc1NC(=O)C1C(=O)NCC1c1cccc(C(F)(F)F)c1 (racemic) [Compound 109]	–	–	–	–	–	–	–	–	–	–	–	–	0	80	–	–	–	–	Plant response rating, Ragweed (ragweed; [1]): 0; Ragweed plant response rating (ragweed; Preemergence, 125 g ai/ha, visual rating on 0 to 100 scale (0 no effect, 100 complete control)): 0; Plant response rating, Ragweed (ragweed; [3]): 0; Plant response rating, Blackgrass (blackgrass; 125 g ai/ha, 0 to 100 scale, 0 no effect, 100 complete control): 50
O=C1NCC(c2cc(F)cc(F)c2)C1C(=O)Nc1ccccc1Cl (racemic) [Compound 280]	–	–	–	–	–	–	–	–	–	–	–	–	0	0	0	0	–	–	Plant response rating, Ragweed (ragweed; [9]): 0; Plant response rating, Blackgrass (blackgrass; [10]): 0
O=C1NCC(c2ccc(OC(F)F)cc2)C1C(=O)Nc1cccc(F)c1F (racemic) [Compound 350]	–	–	–	–	–	–	–	–	–	–	–	–	–	50	0	30	30	50	–
O=C1NCC(c2cc(F)c(F)c(F)c2)C1C(=O)Nc1cccc(F)c1F (stereo not drawn) [Compound 48]	0	20	0	0	0	20	0	0	80	80	90	90	–	–	–	–	–	–	–
O=C1NCC(c2ccc(F)c(Cl)c2)C1C(=O)Nc1ccccc1F (stereo not drawn) [Compound 60]	0	0	0	0	0	0	0	0	80	90	90	90	–	–	–	–	–	–	–
O=C1NCC(c2cccc(OC(F)(F)F)c2)C1C(=O)Nc1ccccc1F (stereo not drawn) [Compound 69]	20	30	0	0	0	0	0	0	70	90	90	90	–	–	–	–	–	–	–
O=C1NCC(c2ccc(C(F)(F)F)cc2)C1C(=O)Nc1ccccc1F (stereo not drawn) [Compound 79, N-(2-fluorophenyl)-2-oxo-4-[4-(trifluoromethyl)phenyl]-3-pyrrolidinecarboxamide]	–	–	0	–	–	–	0	–	–	–	90	–	–	–	–	–	–	–	pest or weed control at 125 g/ha (velvetleaf; Abutilon theophrasti, post-emergence, 240 h, Postemergence, 125 g ai/ha, 0 to 100 scale, 0 no effect, 100 complete control, read-out: Plant response rating, Velvetleaf): 10%; pest or weed control at 500 g/ha (velvetleaf; Abutilon theophrasti, post-emergence, 240 h, Postemergence, 500 g ai/ha, 0 to 100 scale (0 no effect, 100 complete control), read-out: Plant response rating, Velvetleaf): 60%; pest or weed control at 500 g/ha (velvetleaf; Abutilon theophrasti, pre-emergence, 240 h, preemergence, 500 g ai/ha, 0 to 100 scale, read-out: Plant response rating, Velvetleaf): 30%; pest or weed control at 125 g/ha (morningglory; Ipomoea, post-emergence, 240 h, Postemergence, 125 g ai/ha, 0 to 100 scale, 0 no effect, 100 complete control, read-out: Plant response rating, Morningglory): 0%; pest or weed control at 500 g/ha (morningglory; Ipomoea, post-emergence, 240 h, Postemergence, 500 g ai/ha, 0 to 100 scale (0 no effect, 100 complete control), read-out: Plant response rating, Morningglory): 10%; pest or weed control at 500 g/ha (morningglory; Ipomoea, pre-emergence, 240 h, preemergence, 500 g ai/ha, 0 to 100 scale, read-out: Plant response rating, Morningglory): 0%; pest or weed control at 125 g/ha (crabgrass, large; Digitaria sanguinalis, post-emergence, 240 h, Postemergence, 125 g ai/ha, 0 to 100 scale, 0 no effect, 100 complete control, read-out: Plant response rating, Crabgrass, Large): 80%; pest or weed control at 500 g/ha (crabgrass, large; Digitaria sanguinalis, post-emergence, 240 h, Postemergence, 500 g ai/ha, 0 to 100 scale (0 no effect, 100 complete control), read-out: Plant response rating, Crabgrass, Large): 90%; pest or weed control at 500 g/ha (crabgrass, large; Digitaria sanguinalis, pre-emergence, 240 h, preemergence, 500 g ai/ha, 0 to 100 scale, read-out: Plant response rating, Crabgrass, Large): 90%
O=C1NCC(c2ccc(Cl)cc2)C1C(=O)Nc1cccc(F)c1F (stereo not drawn) [Compound 218]	–	–	–	–	–	–	–	–	–	–	–	–	–	–	–	–	–	–	Plant response rating, Ragweed (ragweed; 125 g ai/ha, visual rating, 0 to 100 scale, 0 no effect, 100 complete control, approximately 10 days, preemergence): 0; Plant response rating, Ragweed (ragweed; Postemergence, 125 g ai/ha, 0 to 100 scale, 0 is no effect, 100 is complete control): 0; Ragweed plant response rating (0 to 100 scale, 0 is no effect, 100 is complete control) (ragweed; Postemergence, 500 g ai/ha): 50; Plant response rating, Ragweed (ragweed; [9]): 50; Plant response rating, Blackgrass (blackgrass; [10]): 20; Blackgrass plant response rating (0 to 100 scale, 0 is no effect, 100 is complete control) (blackgrass; 500 g ai/ha): 40
CN1CC(c2cccc(C(F)(F)F)c2)C(C(=O)Nc2cccc(F)c2F)C1=O (stereo not drawn) [Compound 305]	–	–	–	–	–	–	–	–	–	–	–	–	0	70	0	30	50	60	–
CN1CC(c2ccc(C(F)(F)F)cc2)C(C(=O)Nc2cccc(F)c2F)C1=O (stereo not drawn) [Compound 306]	–	–	–	–	–	–	–	–	–	–	–	–	40	60	20	–	80	50	–
O=C1NCC(c2cccc(Br)c2)C1C(=O)Nc1ccc(F)c(F)c1F (stereo not drawn) [Compound 310]	–	–	–	–	–	–	–	–	–	–	–	–	30	50	20	0	0	30	–
CC(C)c1cccc(C2CNC(=O)C2C(=O)Nc2cccc(F)c2F)c1 (stereo not drawn) [Compound 319]	–	–	–	–	–	–	–	–	–	–	–	–	40	50	20	30	40	40	–
O=C1NCC(c2cccc(C(F)(F)F)c2)C1C(=O)Nc1ccc(F)c(F)c1F (stereo not drawn) [Compound 345]	–	–	–	–	–	–	–	–	–	–	–	–	–	60	0	0	0	50	–
